Results taken from US8597904B2, “Pharmaceutical compositions for the treatment of conditions responsive to proteasome inhibition” (priority 2007, dated 2013).

How the values were obtained:
p53 = experiment: Western blot of total p53 protein levels in SK-N-SH cells; format: cell-based, human
Protocol: Because p53 is a key regulator and mediator of apoptosis, the total protein levels of p53 in the p53-wild type cell line SK-N-SH were measured after treatment of cells with syringolin A. As a control, the p53-deficient cell line SKOV3 was tested in parallel. Cells at a concentration of 1.0×10^5 cells per ml were first seeded in six-well plates containing 2 ml of culture medium per well. […] Cells were incubated for 0, 24, and 48 hours, harvested, and lysed in radioimmuno-precipitation assay (RIPA) buffer (20 mM Tris-HCl, pH 7.5, 0.1% sodium lauryl sulphate, 0.5% sodium deoxycholate, 135 mM NaCl, 1% Triton X-100, 10% glycerol, 2 mM EDTA), supplemented with a protease inhibitor cocktail (Roche Molecular Biochemicals, Indianapolis, Ind.) and phosphatase inhibitors sodium fluoride (NaF; 20 mM) and sodium vanadate (Na3VO4; 0.27 mM). The total protein concentration was determined using the protein assay dye reagent from Bio-Rad Laboratories (Hercules, Calif.) and bovine serum albumin (BSA) as a standard. Cell lysates in Laemmli sample buffer (Bio-Rad Laboratories, Hercules, Calif.) containing 5% (v/v) β-mercaptoethanol were boiled for 5 minutes, and equal amounts of total protein were analyzed by 10% sodium dodecyl sulphate-polyacrylamide gel electrophoresis (SDS-PAGE) and Western blotting using PVDF membranes. p53 was detected in Western blotting with mouse monoclonal anti-p53 (sc-126) (diluted 1:250) from Santa Cruz Biotechnology (Santa Cruz, Calif.). Actin was also detected as a loading control using mouse monoclonal anti-β-actin (A5316) (diluted 1:1000) from Sigma Chemical Co. (St. Louis, Mo.). Alternatively, lysates were blotted with rabbit monoclonal anti-caspase-3 (#9665) (diluted 1:1000) or rabbit polyclonal anti-Akt (#9272) (diluted 1:1000), both from Cell Signalling Technology, Inc. (Beverly, Mass.) to test for levels of procaspase-3 and Akt/PKB. Secondary anti-mouse (diluted 1:5000) and anti-rabbit (diluted 1:5000) antibodies coupled to horseradish peroxidase (HRP) were from Amersham Biosciences (Piscataway, N.J.). Proteins were detected using the ECL Plus reagents (Amersham Biosciences, Piscataway, N.J.) and Kodak BioMax XAR film (Fisher Scientific, Pittsburgh, Pa.). The results are representative of three (p53, procaspase-3) or four (Akt/PKB) independent experiments.
As inhibition of the proteasome is expected to result in increased levels of ubiquitinated proteins (Meng, et al. 1999. Proc. Natl. Acad. Sci. U.S.A. 96:10403-10408, which is incorporated herein by reference in its entirety), the effect of syringolin A on total ubiquitinated protein accumulation was analyzed by immunoblot analysis. To do so, SK-N-SH cells were seeded in 6-well cell culture plates at a concentration of 3.8×10^5 cells per ml (1.98 ml per well). […]

yeast 20S proteasome = biological target: T1, yeast 20S proteasome (Saccharomyces cerevisiae, UniProt P25043+P30656+P38624); experiment: cocrystallization with 20S proteasome, X-ray crystallography; format: binding; details: crystal structure of complex
T1 construct: each was cocrystallized with the yeast 20S proteasome; host or cells: yeast
Protocol: To elucidate the binding mode of syringolin. A and glidobactin A to the proteasome, each was cocrystallized with the yeast 20S proteasome. Crystals of the 20S proteasome were grown in hanging drops at 24° C. as described (Grail et al. 1997. Nature 386:463-471; Groll and Huber. 2005. Methods Enzymol. 398:329-336, each which is incorporated herein by reference in its entirety) and incubated for 60 min with syringolin A or glidobactin A. The protein concentration used for crystallization was 40 mg/ml in Tris-HCI (10 mM, pH 7.5) and EDTA (1 mM). The drops contained 3 μL of protein and 2 μL of the reservoir solution (30 mM magnesium acetate, 100 mM morpholino-ethane-sulphonic acid (pH 7.2) and 10% MPD), X-ray diffraction data to 2.9 Å for the yeast 20S proteasome:syringolin A and to 2.7 Å for the 20S proteasome:glidobactin A-complex were collected using synchrotron radiation with λ=1.05 Å on the BW6-beamline at DESY/Hamburg/Germany and with λ=1.0 Å on the […] at SLS/Villingen/Switzerland, respectively. Crystals were soaked in cryoprotecting buffer (30% MPD, 20 mM magnesium acetate, 100 mM morpholino-ethane-sulfonic acid pH 6.9) and frozen in a stream of liquid nitrogen gas at 90 K (Oxford Cryo Systems). X-ray intensities were evaluated by using the DENZO program package (Otwinowski and Minor. 1997. Methods Enzymol 276:307-326) and data reduction was performed with CCP4 (Potterton et al. 2003. Acta Crystallogr. D Biol. Crystallogr. 59:1131-1137). The space group belongs to P21 with cell dimensions of about a=134 Å, b=302 Å, c=144 Å and β=112° (Table 1). The anisotropy of diffraction was corrected by an overall anisotropic temperature factor by comparing observed and calculated structure amplitudes using the program CNS (Brünger et al. 1998. Acta Crystallogr. D Biol. Crystallogr. 54: 905-921, which is incorporated herein by reference in its entirety). […]

| SMILES | total protein levels of p53 (p53; GlbA treatment) | GlbA-induced p53 levels in presence of 3-MA (p53; GlbA with 3-MA) | binding mode at proteasome active sites (yeast 20S proteasome) | binding to the caspase-like active site (yeast 20S proteasome) | p53 levels (p53; 20 μM, 24 hours after treatment) | protein levels of tumor suppressor protein p53 (p53; 25 μM, time-course up to 24 hours) |
| --- | --- | --- | --- | --- | --- | --- |
| CCCCCCC/C=C/C=C/C(=O)N[C@H](C(=O)N[C@H]1C[C@@H](O)CCNC(=O)/C=C/[C@H](C)NC1=O)[C@@H](C)O [glidobactin A] | strong accumulation of p53 | partially reduced | same mechanism of inactivation | did not bind |  |  |
| CC(C)[C@H](NC(=O)N[C@H](C(=O)N[C@H]1/C=C/CCNC(=O)/C=C/[C@H](C(C)C)NC1=O)C(C)C)C(=O)O [syringolin A] |  |  | covalently binds to the hydroxy group of the active site N-terminal threonine |  | rapidly increased | time-dependent increase |
